Laboratory results reported in PMC5923171, “Novel Zinc-Attenuating Compounds as Potent Broad-Spectrum Antifungal Agents with In Vitro and In Vivo Efficacy” (Antimicrobial Agents and Chemotherapy, 2018).
Converted amounts (≈) assume the structure as drawn. Marks after values point to notes of the source that are not given here.

Key:
[1] = system: Rhizopus oryzae ATCC 34965; test: Antifungal susceptibility testing (MIC); format: cell-based; conditions: Rhizopus arrhizus, ATCC34965; no visible growth, 48 to 72 h, 34°C
Method: (§1) Antifungal susceptibility testing was carried out as described previously ([38], [39]), with a few modifications. Briefly, for each yeast or mold growth inhibition assay, frozen stocks of yeast cells or spores were diluted to a final concentration of 0.5 × 10^5 to 2.5 × 10^5 CFU/ml in sterile water. ZAC989, ZAC307, and ZAC623 were dissolved in DMSO to 10 mM stocks from which half-log serial dilutions were prepared. Growth assays were subsequently performed by pipetting 3 μl of compound dissolved in DMSO (giving a final concentration of 1.5% DMSO), 100 μl of cell-spore suspension, and 97 μl of 2× RPMI medium (20.8 g/liter of RPMI 1640 medium, 69.06 g/liter of morpholinepropanesulfonic acid [MOPS], 36 g/liter of glucose) into a microtiter plate that was incubated for 24 h (yeasts) or 48 to 72 h (molds) at 34°C. Fungal growth was determined spectrophotometrically by optical density reading of each well at a wavelength of 492 nm on a Victor X5 (Perkin-Elmer) plate reader. […] Standard errors between repeated experiments were generally below 5%. The growth effect of exogenous addition of various divalent metals was evaluated by performing the antifungal susceptibility assay in the presence of 5 μM ZAC989 or ZAC307 and with increasing concentrations (0.003 to 50 μM) of ZnSO4, CuSO4, (NH4)2Fe(SO4)2, MgCl2, and CaCl2.

C. tropicalis Ct016 = test: Antifungal susceptibility testing (MIC); format: cell-based; conditions: Candida tropicalis, at least 50% growth inhibition, RPMI, 24 h, 34°C
Method: as §1

[2] = system: Aspergillus flavus ATCC 15547; test: Antifungal susceptibility testing (MIC); format: cell-based; conditions: ATCC15547, no visible growth, 48 to 72 h, 34°C
Method: as §1

[3] = system: Aspergillus terreus At070; test: Antifungal susceptibility testing (MIC); format: cell-based; conditions: no visible growth, 48 to 72 h, 34°C
Method: as §1

Candida albicans SC5314 = test: In vivo fungal kidney burden candidiasis model; design: species or system BALB/c mice; conditions: for Mean log CFU/kidney / Mean log CFU/kidney reduction: 60 mg/kg i.p. twice a day; for Mean log CFU/kidney reduction: vs untreated control; for adverse effects following dosing: 60 mg/kg i.p., mice
Method: A murine model of systemic candidiasis was established according to a previously described method ([44]). BALB/c mice were infected with a 0.1-ml inoculum (1 × 10^5 to 5 × 10^5 CFU) of Candida albicans SC5314 cells by the intravenous route on day 0. Compounds were tested at doses of 60 mg/kg. Administration of compound was initiated 24 h prior (day −1) to infection (day 0) by the intraperitoneal route, dosing twice a day for 4 days (day −1 to day 2). ZAC307 was also evaluated with administration of the compounds given after the infection at day 0 (no pretreatment) and following dosing twice a day for 3 days (days 0 to 2). Fluconazole was used as a comparator drug. Six mice were used for each group, and the untreated control group was exposed to the vehicle alone. ZAC989 and ZAC307 were formulated by taking 60 mg of compound and adding this to 2 ml and 4 ml of 0.1 N NaOH, respectively. After mixing and sonication of the resulting solutions, 4 ml of purified water was added. The pH was adjusted to 9.0 with 0.1 N HCl solution, followed by the addition of 90 mg of NaCl. The solutions were then diluted to 10 ml and filtered through a 0.22-μm polyvinylidene difluoride (PVDF) filter. Sample collection and processing were performed as follows. Twelve hours after the last dose, all treated and untreated animals were sacrificed by cervical dislocation and kidneys were collected in 3 ml of sterile normal saline. The samples were homogenized, serially diluted, and plated on Sabouraud dextrose agar (SDA). SDA plates were incubated for 24 to 48 h at 35°C, and CFU were enumerated and reported as log CFU/kidney. The endpoint was mean log CFU of fungi in kidneys of treated animals compared to that of untreated animals. The study was conducted in conformance with an application submitted to the Committee for the Purpose of Control and Supervision of Experiments on Animals (CPCSEA), New Delhi, India, after approval from the Institutional Animal Ethics Committee (IAEC).

[4] = Solubility in water at millimolar concentrations; format: physicochemical
Candida albicans = test: Abrogation of the antifungal effect by exogenous divalent metals; format: cell-based; conditions: for fungal growth rate compared to control cells: in the presence of 100 μM Fe^2+
Method: as §1, with “[…],” for “susceptibility assay in the presence of 5 μM ZAC989 or ZAC307 and with increasing concentrations (0.003 to 50 μM) of ZnSO4, CuSO4, (NH4)2Fe(SO4)2,”

C. albicans SC5314 = test: Time-kill assay; format: cell-based, Candida albicans; conditions: 0.5 μg/ml AMB, 3.6 μg/ml ZAC989, 4.4 μg/ml EDTA, 4.2 μg/ml TPEN; up to 24 h
Method: C. albicans SC5314 cells (10^5 CFU/ml) were incubated in 10 ml of RPMI medium at 30°C with gentle agitation (150 rpm) in the presence of EDTA (15 μM), TPEN (10 μM), ZAC989 (10 μM), or AMB (0.5 μM). At the desired time points (0, 3, 5.5, and 24 h), a 100-μl aliquot was removed for each test condition and serially diluted (10-fold) in saline (0.9% NaCl), and 30 μl of each dilution was plated on YPD agar plates. The colony count on each YPD plate was determined after incubation at 30°C for 48 h ([40]). C. albicans cells treated with DMSO (1%, vol/vol) served as a control.

Structure (SMILES)	MIC [1] [µg/mL]	MIC (C. tropicalis Ct016) [µg/mL]	MIC [2] [µg/mL]	MIC [3] [µg/mL]	Mean log CFU/kidney (Candida albicans SC5314; day −1 to day 2 (pretreatment)) [log CFU/kidney]	Mean log CFU/kidney reduction (Candida albicans SC5314; day −1 to day 2 (pretreatment)) [log CFU/kidney]	adverse effects following dosing (Candida albicans SC5314)	solubility in water [4]	effect of exogenous addition of zinc or copper on the antifungal effects (Candida albicans)	fungal growth rate compared to control cells (Candida albicans)	Mean log CFU/kidney (Candida albicans SC5314; days 0 to 2, no pretreatment) [log CFU/kidney]	Mean log CFU/kidney reduction (Candida albicans SC5314; days 0 to 2, no pretreatment)	time-kill activity (fungistatic or fungicidal) (C. albicans SC5314)
Cc1cc(O)n(-c2cc(N3CC[C@H](Oc4cnccc4C#N)C3)ncn2)n1 [ZAC989, 3-[(3S)-1-[6-(5-hydroxy-3-methyl-pyrazol-1-yl)pyrimidin-4-yl]pyrrolidin-3-yl]oxy-pyridine-4-carbonitrile]	1.7 (≈ 4.68 µM)	0.9 (≈ 2.48 µM)	5.1 (≈ 14 µM)	1.6 (≈ 4.4 µM)	4.09 ± 0.31	1.71	lethargy lasting for 5 to 15 min after dosing	poor solubility in water	reversed	approximately 50%	–	–	–
CN(C)c1cc(-n2nc(-c3ccccc3)cc2O)ncn1 [ZAC307, 2-[6-(dimethylamino)pyrimidin-4-yl]-5-phenyl-pyrazol-3-ol]	1.3 (≈ 4.62 µM)	0.4 (≈ 1.42 µM)	1.3 (≈ 4.62 µM)	1.3 (≈ 4.62 µM)	4.73 ± 0.19	1.06	no adverse effects	poor solubility in water	reversed	approximately 50%	4.77 ± 0.19	1.03* log CFU/kidney	–
O=C(O)CN(CCN(CC(=O)O)CC(=O)O)CC(=O)O [EDTA]	–	–	–	–	–	–	–	–	–	–	–	–	fungistatic effect within the first 24 h of exposure
c1ccc(CN(CCN(Cc2ccccn2)Cc2ccccn2)Cc2ccccn2)nc1 [TPEN, N,N,N’,N’-tetrakis(2-pyridylmethyl)-ethylenediamine]	–	–	–	–	–	–	–	–	–	–	–	–	fungistatic effect within the first 24 h of exposure
